Laboratory results: BindingDB's records for patent US20240360157 (Biogen Ma, 2024)
pIC50: −log10 of the molar value.

Assays:
Assay in all cases: ADP-Glo Kinase Assay
[1] = biological target: Non-receptor tyrosine-protein kinase TYK2 (Homo sapiens, UniProt P29597)
Protocol: (§1) The kinase activity of recombinantly generated catalytic kinase (also known as JH1) domain of human JAK1, JAK2, JAK3 and TYK2 were evaluated in a plate-based assay using the ADP-Glo™ Kinase Assay platform. Specifically, 4 nM of recombinant JAK1 kinase domain is used to phosphorylate 50 μM of a JAK3-342 (sequence ALVDGYFRLTT) peptide in the presence of 35 μM ATP. Catalytic activities of recombinant JAK2, JAK3 and TYK2 kinase domain (0.2, 0.3 and 2 nM, respectively) are evaluated by the phosphorylation status of the JAK3-974 (50 μM; sequence LPLDKDYYVVR) peptide with the addition of ATP (15, 4 and 10 μM, respectively). The reactions proceed for 100 minutes and the catalytic activity is quantified by first depleting the unused ATP, converting the hydrolyzed ADP into ATP to generate luminescence in a luciferase reaction; which is the basis of the ADP-Glo platform. Compounds are tested at either 10 μM or 1 μM top concentration, 11 points of 3-fold dilution.

[2] = biological target: Tyrosine-protein kinase JAK1 (Homo sapiens, UniProt P23458)
Protocol: as §1

[3] = biological target: Tyrosine-protein kinase JAK2 (Homo sapiens, UniProt O60674)
Protocol: as §1

[4] = biological target: T1, Tyrosine-protein kinase JAK3 [3-974] (UniProt P52333)
T1 construct: 3-974
T1 sequence (P52333 whole entry): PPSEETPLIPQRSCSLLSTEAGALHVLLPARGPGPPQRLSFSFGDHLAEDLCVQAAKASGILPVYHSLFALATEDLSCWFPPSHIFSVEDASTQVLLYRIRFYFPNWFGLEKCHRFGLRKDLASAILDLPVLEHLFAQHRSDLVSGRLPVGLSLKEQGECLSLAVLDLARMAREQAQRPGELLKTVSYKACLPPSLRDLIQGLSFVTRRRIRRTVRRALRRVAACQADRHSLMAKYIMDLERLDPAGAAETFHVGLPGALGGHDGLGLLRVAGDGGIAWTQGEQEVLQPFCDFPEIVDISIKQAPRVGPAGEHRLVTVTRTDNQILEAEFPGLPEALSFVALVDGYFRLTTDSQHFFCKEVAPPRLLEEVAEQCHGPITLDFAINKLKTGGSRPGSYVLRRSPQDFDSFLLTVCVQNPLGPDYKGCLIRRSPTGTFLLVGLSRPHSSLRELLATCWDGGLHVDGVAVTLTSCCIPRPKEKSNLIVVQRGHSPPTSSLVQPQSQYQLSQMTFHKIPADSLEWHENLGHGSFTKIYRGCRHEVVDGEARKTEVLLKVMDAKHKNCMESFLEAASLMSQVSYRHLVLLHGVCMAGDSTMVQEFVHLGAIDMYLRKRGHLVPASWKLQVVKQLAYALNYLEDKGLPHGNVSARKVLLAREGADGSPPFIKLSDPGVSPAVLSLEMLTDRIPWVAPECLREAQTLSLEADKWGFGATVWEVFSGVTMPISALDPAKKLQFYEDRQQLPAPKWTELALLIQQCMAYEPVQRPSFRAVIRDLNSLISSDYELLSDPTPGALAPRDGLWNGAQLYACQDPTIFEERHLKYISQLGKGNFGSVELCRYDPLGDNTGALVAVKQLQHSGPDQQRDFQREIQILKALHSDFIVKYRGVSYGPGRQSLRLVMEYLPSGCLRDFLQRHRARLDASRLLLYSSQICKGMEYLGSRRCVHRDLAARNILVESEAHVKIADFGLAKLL
Protocol: as §1

Tyrosine-protein kinase JAK2, sequence (O60674 whole entry): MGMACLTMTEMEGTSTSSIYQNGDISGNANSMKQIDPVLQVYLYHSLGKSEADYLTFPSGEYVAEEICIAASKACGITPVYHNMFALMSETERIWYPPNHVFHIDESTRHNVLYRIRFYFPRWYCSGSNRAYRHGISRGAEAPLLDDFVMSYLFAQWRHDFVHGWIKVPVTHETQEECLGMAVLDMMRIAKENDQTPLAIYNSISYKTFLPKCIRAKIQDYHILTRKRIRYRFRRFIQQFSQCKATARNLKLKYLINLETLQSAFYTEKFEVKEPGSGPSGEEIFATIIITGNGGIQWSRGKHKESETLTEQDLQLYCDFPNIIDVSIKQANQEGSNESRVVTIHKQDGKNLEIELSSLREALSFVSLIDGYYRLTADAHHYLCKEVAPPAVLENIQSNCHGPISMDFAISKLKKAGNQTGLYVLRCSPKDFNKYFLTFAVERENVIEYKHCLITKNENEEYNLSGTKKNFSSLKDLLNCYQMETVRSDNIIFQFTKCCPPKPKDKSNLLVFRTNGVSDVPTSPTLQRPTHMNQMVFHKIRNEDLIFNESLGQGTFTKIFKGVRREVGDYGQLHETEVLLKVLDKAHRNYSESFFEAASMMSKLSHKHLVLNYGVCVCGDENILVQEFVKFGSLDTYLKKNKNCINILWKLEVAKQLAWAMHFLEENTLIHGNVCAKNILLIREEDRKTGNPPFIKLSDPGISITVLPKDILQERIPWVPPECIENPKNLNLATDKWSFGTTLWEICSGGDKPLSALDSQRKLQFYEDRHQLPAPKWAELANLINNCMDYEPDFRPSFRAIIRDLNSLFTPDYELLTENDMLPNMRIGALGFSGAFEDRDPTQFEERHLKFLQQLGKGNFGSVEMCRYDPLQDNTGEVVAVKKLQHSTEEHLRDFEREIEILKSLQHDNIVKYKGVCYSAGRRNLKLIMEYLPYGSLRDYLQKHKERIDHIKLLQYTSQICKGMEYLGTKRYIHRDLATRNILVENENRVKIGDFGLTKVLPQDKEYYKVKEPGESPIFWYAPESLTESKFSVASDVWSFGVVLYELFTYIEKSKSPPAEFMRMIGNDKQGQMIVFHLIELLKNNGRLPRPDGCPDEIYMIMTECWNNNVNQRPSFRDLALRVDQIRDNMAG
Non-receptor tyrosine-protein kinase TYK2, sequence (P29597 whole entry, the tested form may be a part): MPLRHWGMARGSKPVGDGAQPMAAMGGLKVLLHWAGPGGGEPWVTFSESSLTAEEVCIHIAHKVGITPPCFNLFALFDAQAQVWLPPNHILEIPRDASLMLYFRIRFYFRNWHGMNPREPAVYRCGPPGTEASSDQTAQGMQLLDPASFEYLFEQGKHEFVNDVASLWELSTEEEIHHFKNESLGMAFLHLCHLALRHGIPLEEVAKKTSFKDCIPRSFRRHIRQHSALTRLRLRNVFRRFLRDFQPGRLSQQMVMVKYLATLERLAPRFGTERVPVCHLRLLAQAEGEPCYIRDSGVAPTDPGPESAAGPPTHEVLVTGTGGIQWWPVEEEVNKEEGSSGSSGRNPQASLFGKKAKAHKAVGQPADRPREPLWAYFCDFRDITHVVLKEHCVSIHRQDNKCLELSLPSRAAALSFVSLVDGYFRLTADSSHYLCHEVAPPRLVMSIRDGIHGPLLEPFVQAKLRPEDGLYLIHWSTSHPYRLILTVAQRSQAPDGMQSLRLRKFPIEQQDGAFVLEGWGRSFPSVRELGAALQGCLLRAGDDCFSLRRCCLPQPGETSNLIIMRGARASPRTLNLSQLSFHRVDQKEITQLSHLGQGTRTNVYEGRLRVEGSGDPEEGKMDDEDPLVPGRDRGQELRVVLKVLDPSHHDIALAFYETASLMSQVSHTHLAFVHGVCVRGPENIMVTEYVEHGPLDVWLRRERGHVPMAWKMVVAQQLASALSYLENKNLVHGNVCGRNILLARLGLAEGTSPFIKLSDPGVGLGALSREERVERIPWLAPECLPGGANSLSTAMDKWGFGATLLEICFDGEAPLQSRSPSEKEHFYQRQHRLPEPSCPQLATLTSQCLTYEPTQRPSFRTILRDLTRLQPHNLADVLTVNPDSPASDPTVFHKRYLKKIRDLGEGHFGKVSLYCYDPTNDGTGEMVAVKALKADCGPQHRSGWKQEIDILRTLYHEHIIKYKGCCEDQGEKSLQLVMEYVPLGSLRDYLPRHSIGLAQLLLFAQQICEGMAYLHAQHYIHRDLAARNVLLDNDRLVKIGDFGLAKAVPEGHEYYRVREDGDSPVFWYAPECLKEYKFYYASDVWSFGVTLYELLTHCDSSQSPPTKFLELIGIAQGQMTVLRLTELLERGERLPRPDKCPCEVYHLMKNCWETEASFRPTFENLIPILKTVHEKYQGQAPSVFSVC
Tyrosine-protein kinase JAK1, sequence (P23458 whole entry): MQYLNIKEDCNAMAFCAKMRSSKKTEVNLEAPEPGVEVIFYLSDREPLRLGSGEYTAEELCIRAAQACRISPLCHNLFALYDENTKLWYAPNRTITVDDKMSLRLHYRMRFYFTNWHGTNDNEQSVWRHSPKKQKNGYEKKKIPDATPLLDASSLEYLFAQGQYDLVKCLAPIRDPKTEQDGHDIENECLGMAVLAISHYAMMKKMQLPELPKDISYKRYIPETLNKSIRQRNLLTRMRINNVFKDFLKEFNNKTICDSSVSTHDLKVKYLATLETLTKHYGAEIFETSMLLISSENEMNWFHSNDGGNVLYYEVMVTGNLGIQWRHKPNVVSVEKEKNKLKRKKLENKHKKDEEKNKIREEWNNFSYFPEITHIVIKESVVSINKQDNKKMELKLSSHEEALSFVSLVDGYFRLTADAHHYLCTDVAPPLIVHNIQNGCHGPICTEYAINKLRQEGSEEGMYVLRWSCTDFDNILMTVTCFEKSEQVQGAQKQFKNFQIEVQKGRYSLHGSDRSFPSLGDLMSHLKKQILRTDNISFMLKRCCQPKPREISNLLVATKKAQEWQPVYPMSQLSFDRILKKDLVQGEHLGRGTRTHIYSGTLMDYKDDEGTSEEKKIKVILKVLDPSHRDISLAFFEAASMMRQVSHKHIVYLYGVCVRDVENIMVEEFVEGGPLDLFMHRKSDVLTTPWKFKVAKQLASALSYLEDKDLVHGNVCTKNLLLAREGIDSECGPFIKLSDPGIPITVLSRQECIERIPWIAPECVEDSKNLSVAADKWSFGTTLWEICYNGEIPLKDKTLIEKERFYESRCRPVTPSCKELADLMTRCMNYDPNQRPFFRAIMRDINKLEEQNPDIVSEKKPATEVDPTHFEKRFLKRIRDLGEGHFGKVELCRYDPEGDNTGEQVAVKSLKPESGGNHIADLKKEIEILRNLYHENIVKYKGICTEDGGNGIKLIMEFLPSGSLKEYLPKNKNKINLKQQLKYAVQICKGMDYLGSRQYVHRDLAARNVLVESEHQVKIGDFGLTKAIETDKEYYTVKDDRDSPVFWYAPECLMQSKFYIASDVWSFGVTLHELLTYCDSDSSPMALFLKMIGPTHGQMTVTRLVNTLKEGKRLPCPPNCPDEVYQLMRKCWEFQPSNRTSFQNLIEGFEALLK

Row | Structure (SMILES) | pIC50 [1] | pIC50 [2] | pIC50 [3] | pIC50 [4]
1 | Cn1cc(-c2cc3c(N4CC5CCC(C4)N5C(=O)[C@@H]4CC4(F)F)ccnc3[nH]2)cn1 [US20240360157, Example 239] | 9.70 | 7.74 | 8.10 | 6.94
2 | COc1cc(-c2cc3c(N4CC5CCC(C4)N5C(=O)[C@@H]4C[C@H]4F)ccnc3[nH]2)c(F)cn1 [US20240360157, Example 246] | 8.29 | 7.12 | 7.28 | 6.00
